The values that follow come from US8846393B2, “Methods of improving stem cell homing and engraftment” (Gamida-Cell Ltd., priority 2005, dated 2014).

One test deals with VLA-4. Briefly: Shear flow experiments, VLA4-mediated binding to immobilized VCAM-1. It counts as cell-based, human. To be noted: CD34+ cells cultured with cytokines and nicotinamide. As for the experimental part: FIG. 3 is a graph showing the effect of nicotinamide on VLA4-mediated binding of cells to immobilized adhesion molecules under shear flow. CD34+ cells cultured as described in FIGS. 1 and 2 hereinabove were assayed for capture and arrest under shear stress, on immobilized VCAM-1 adsorbed as 10 μl dots on polystyrene. Cell settling events, and arrest were analyzed under perfusion (shear stress) by video photography. Assayed cell populations were cells before culture (non-cultured, open circles), cells cultured with cytokines, as described in FIG. 2 (cultured, closed circles), and cells cultured with cytokines and nicotinamide (cultured+NA, closed triangles). […]
Soluble purified seven-domain human VCAM-1, sVCAM-1 was mixed in coating medium (PBS buffered with 20 mM sodium bicarbonate pH, 8.5) with a fixed amount of carrier (2 μg/ml HSA) and adsorbed as 10-μl spots on polystyrene plates (Becton Dickinson and Co, San Jose, Calif., USA) for 2 hours at 37° C., alone or with the indicated amounts of intact or heat-inactivated chemokines. […] VCAM-1 site densities were assessed using ^125I-labeled anti-VCAM-1 mAb, 4B9. […] The entire duration of cell perfusions were recorded on a videotape with a long integration LIS-700 CCD video camera (Applitech Rigicam, Israel) and a Time Lapse SVHS-Video recorder (AG-6730; Panasonic, Japan). […]

Another test deals with NOD/SCID mice. Briefly: Transplantation of human CD34+ cells into NOD/SCID mice, engraftment and quantification of SCID repopulating cells. The note with it: for engraftment (mice positively engrafted): 3-weeks with cytokines+NA, 4-weeks post transplantation. The class given is in vivo. The text has this: FIGS. 4a-4f is a graphic representation of the effect of nicotinamide on homing and engraftment of human hematopoietic cells transplanted into NOD/SCID mice. FIGS. 4a and 4b show the percentage of human (CD45+) cells in the cell populations before transplantation: non-cultured CD34^+ cells (non-cultured, gray ovals), the entire progeny of cultures following 3-week exposure to cytokines alone (cytokines alone, closed ovals), or cytokines and nicotinamide (cytokines+NA, arrows). The percent of engraftment 4 weeks post transplantation was determined by flow cytometry of human CD45 cells in the NOD/SCID marrow (y-axis). The numbers of SCID repopulating cells (SRC) were calculated by plotting the engraftment frequencies at each dose. The resultant curves indicates the estimated frequency of SRCs within non-cultured CD34+ cells (FIG. 4c), culture with cytokines (FIG. 4d) or cytokines and nicotinamide (FIG. 4e). The number shown in each box indicates the calculated frequency of SRCs using the maximum likelihood estimator. […] Mouse bone marrow cells were dually stained with FITC-conjugated anti-CD45 (human) and antibodies to human differentiation markers as indicated. Percentages of dual positive cells are shown within each quadrant. Note the greater than 7 fold enhancement of engraftment in the nicotinamide-treated mice (FIG. 4e), as compared with mice treated with cytokines alone (FIG. 4d); FIGS. 5a-5c are a graphic representation of the effect of nicotinamide (NA) on the engraftment potential of cells cultured under differentiation-promoting conditions. Cultures were initiated with purified cord blood-derived CD34+ cells in medium supplemented with SCF, TPO, IL-6 and FLT3, 50 ng/ml each, and IL-3, 20 ng/ml, with (cytokines+NA, arrows) or without (cytokines, ovals) 10 mM nicotinamide. After 3 weeks, cells were harvested, and transplanted into SCID mice as indicated. Mice were transplanted with 1.25−5×10^4 CD34+ cells or with their progeny following expansion. Mice were sacrificed 4 weeks later and bone marrow cells were analyzed by FACS for the presence of CD34+ (human progenitor) and CD45+ (human) cells. Mice were scored as engrafted when the number of human (CD45+) cells constituted […] of the marrow population. […] FIGS. 4b and 4c show the percentage of total human (CD45+) (FIG. 4b) cells and human progenitor (CD45+CD34+) (FIG. 4c) cells in the bone marrow of mice transplanted with cells derived from culture initiated with 1.25×10^4 CD34+ cells. Note the enhanced engraftment of both total human, and human progenitor cells resulting from nicotinamide treatment. Purified CD34+ cells were cultured in culture bags (American Fluoroseal Co., Gaithersburg, Md.) at 1×10^4 cells/ml in MEMα medium, 10% fetal calf serum (FCS) and cytokines: Thrombopoietin (TPO), interleukin-6 (IL-6), FLT-3 ligand and stem cell factor (SCF), each at a final concentration of 50 ng/ml (Perpo Tech, Inc., Rocky Hill, N.J.), with or without 5 mM nicotinamide (NA) (Sigma Aldrich, Milwaukee, Wis.) and incubated at 37° C. in a humidified atmosphere of 5% CO2 in air. […] Until week 3, the cultures were topped weekly with the same volume of fresh medium and then weekly demi-depopulated. Cell counting, colony forming unit (CFUc) assay and immunophenotype analysis were performed as described hereinbelow. NOD/SCID mice were bred and maintained in sterile intra-ventilated cages (Techniplast, Bugugiatte, Italy). Eight-week-old mice were sub-lethally irradiated as described above. […]

Molecules are shown by their SMILES.

On to `NC(=O)c1cccnc1` [nicotinamide], for which the “percentage of initially settled cells resistant to removal by shear stress” value in the test with VLA-4 is listed as “significantly enhanced”. The “mice with human (CD45+) cells in bone marrow” value with NOD/SCID mice (IL-3 supplemented cultures (SCF, TPO, IL-6, FLT3, IL-3) with 10 mM nicotinamide, 1.25×10^4 cells, 4 weeks) is 5 out of 5. Besides, the “engraftment of human progenitors (CD45+CD34+)” value with NOD/SCID mice (IL-3 supplemented cultures with 10 mM nicotinamide, 4-weeks after transplantation) was “observed only in mice transplanted with cells cultured with nicotinamide”. The “number of SRCs relative to non-cultured cells” value in the test on NOD/SCID mice (culture with nicotinamide and cytokines) is 14 fold. For the same molecule, the “engraftment (mice positively engrafted)” value is listed as 50% with NOD/SCID mice (progeny of 3×10^3 CB CD34+ cells) and 100% in the test with NOD/SCID mice (progeny of 6×10^3 CD34+ cells).
